Assay results from the supplement of paper PMC10307832.

Compound: CC1=CC(=CC=C1)NC2=NC(=CS2)C3=CC=NC=C3 + CC(=O)Nc1cccc(-n2c(=O)n(C3CC3)c(=O)c3c(Nc4ccc(I)cc4F)n(C)c(=O)c(C)c32)c1 [Trametinib] (partner 0.02 µM)
Assay: relative viability (nuclei count vs DMSO), 5 days (fraction); higher = more cells survive
Details: first compound 0.08 µM
How it was run: (§1)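 Relative viability is defined as nuclei in treated wells over nuclei in vehicle wells. Duplicate plates were run and medians reported. Lung cancer cell lines in 1536-well plates were dosed by pin tool one day after seeding, with one drug or with a fixed anchor-drug dose plus five library-drug doses (not always all listed) in √10 steps, and nuclei were counted after 5 days.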

Cell Line | relative viability
HCC-44 | 0.939
LXF-289 | 0.639
BEN | 0.82
HARA | 0.561
HCC-78 | 0.505
NCI-H441 | 0.363
LCLC-97TM1 | 0.185
NCI-H2023 | 0.592
A-427 | 0.572
NCI-H460 | 0.0961
NCI-H727 | 0.422
NCI-H1755 | 0.734
NCI-H520 | 0.592
NCI-H2405 | 0.566
SW 1573 | 0.596
201T | 0.75
NCI-H1975 | 0.294

Cell Line | relative viability
HCC-827 | 0.497
NCI-H2347 | 0.289
NCI-H1355 | 0.388
NCI-H650 | 0.837
NCI-H1666 | 0.578
EPLC-272H | 0.308
NCI-H23 | 0.371
NCI-H1915 | 0.308
NCI-H1437 | 0.439
NCI-H322M | 0.482
NCI-H1792 | 0.401
NCI-H2085 | 0.513
HCC-15 | 0.369
PC-3 [JPC-3] | 0.602
EKVX | 0.29
LC-2-ad | 0.862

Same assay, conditions: first compound 0.253 µM

Cell Line | relative viability
HCC-44 | 0.847
LXF-289 | 0.674
BEN | 1.16
HARA | 0.742
HCC-78 | 0.666
NCI-H441 | 0.418
LCLC-97TM1 | 0.214
NCI-H2023 | 0.617
A-427 | 0.716
NCI-H460 | 0.0855
NCI-H1755 | 0.735
NCI-H520 | 0.671
NCI-H2405 | 0.571
SW 1573 | 0.585
201T | 0.76
NCI-H1975 | 0.274

Cell Line | relative viability
HCC-827 | 0.529
NCI-H2347 | 0.309
NCI-H1355 | 0.298
NCI-H650 | 1.07
NCI-H1666 | 0.728
EPLC-272H | 0.271
NCI-H23 | 0.199
NCI-H1915 | 0.29
NCI-H1437 | 0.48
NCI-H322M | 0.534
NCI-H1792 | 0.397
NCI-H2085 | 0.376
HCC-15 | 0.383
EKVX | 0.308
LC-2-ad | 0.881

Same assay, conditions: first compound 0.8 µM

Cell Line | relative viability
HCC-44 | 0.701
LXF-289 | 0.648
BEN | 0.99
HARA | 0.734
HCC-78 | 0.617
NCI-H441 | 0.623
LCLC-97TM1 | 0.157
NCI-H2023 | 0.429
A-427 | 0.714
NCI-H460 | 0.0743
NCI-H727 | 0.439
NCI-H1755 | 0.612
NCI-H520 | 0.757
NCI-H2405 | 0.591
SW 1573 | 0.741
201T | 0.76

Cell Line | relative viability
NCI-H1975 | 0.335
HCC-827 | 0.564
NCI-H2347 | 0.256
NCI-H1355 | 0.275
NCI-H650 | 1.04
NCI-H1666 | 0.684
EPLC-272H | 0.296
NCI-H23 | 0.424
NCI-H1915 | 0.27
NCI-H1437 | 0.434
NCI-H322M | 0.509
NCI-H1792 | 0.379
NCI-H2085 | 0.428
HCC-15 | 0.373
PC-3 [JPC-3] | 0.658
LC-2-ad | 0.826

Same assay, conditions: first compound 2.53 µM

Cell Line | relative viability
HCC-44 | 0.687
LXF-289 | 0.739
BEN | 0.994
HARA | 0.447
HCC-78 | 0.563
NCI-H441 | 0.348
LCLC-97TM1 | 0.178
NCI-H2023 | 0.375
A-427 | 0.719
NCI-H460 | 0.0913
NCI-H1755 | 0.642
NCI-H520 | 0.707
SW 1573 | 0.696
201T | 0.778
NCI-H1975 | 0.263
HCC-827 | 0.542
NCI-H2347 | 0.29
NCI-H1355 | 0.294
NCI-H650 | 0.956
NCI-H1666 | 0.523
NCI-H23 | 0.388
NCI-H1915 | 0.266
NCI-H1437 | 0.274
NCI-H322M | 0.552
NCI-H1792 | 0.317
NCI-H2085 | 0.471
HCC-15 | 0.348
PC-3 [JPC-3] | 0.606
EKVX | 0.313
LC-2-ad | 0.839

Same assay, conditions: first compound 8 µM

Cell Line | relative viability
HCC-44 | 0.695
LXF-289 | 0.606
BEN | 0.898
HARA | 0.629
HCC-78 | 0.753
NCI-H441 | 0.349
LCLC-97TM1 | 0.185
NCI-H2023 | 0.179
A-427 | 0.624
NCI-H460 | 0.111
NCI-H727 | 0.405
NCI-H1755 | 0.522
NCI-H520 | 0.716
NCI-H2405 | 0.552
SW 1573 | 0.48
201T | 0.659
NCI-H1975 | 0.193

Cell Line | relative viability
HCC-827 | 0.53
NCI-H2347 | 0.265
NCI-H1355 | 0.269
NCI-H650 | 0.964
NCI-H1666 | 0.6
EPLC-272H | 0.277
NCI-H23 | 0.419
NCI-H1915 | 0.27
NCI-H1437 | 0.313
NCI-H322M | 0.52
NCI-H1792 | 0.429
NCI-H2085 | 0.426
HCC-15 | 0.343
PC-3 [JPC-3] | 0.572
EKVX | 0.319
LC-2-ad | 0.8

Compound: CC1=CC(=CC=C1)NC2=NC(=CS2)C3=CC=NC=C3 + Nc1ncn([C@H]2C[C@H](O)[C@@H](CO)O2)c(=O)n1 [Decitabine] (partner 2 µM)
Assay: as above
Details: first compound 0.08 µM
How it was run: as §1

Cell Line | relative viability
HCC-44 | 0.88
LXF-289 | 0.353
BEN | 0.636
HARA | 0.508
HCC-78 | 0.727
NCI-H441 | 0.266
LCLC-97TM1 | 0.204
NCI-H2023 | 0.239
A-427 | 0.558
NCI-H460 | 0.445
NCI-H727 | 0.88
NCI-H1755 | 0.654
NCI-H520 | 0.55
NCI-H2405 | 0.694
SW 1573 | 0.48
201T | 0.898
NCI-H1975 | 0.326

Cell Line | relative viability
HCC-827 | 0.298
NCI-H2347 | 0.622
NCI-H1355 | 0.347
NCI-H650 | 0.331
NCI-H1666 | 0.682
EPLC-272H | 0.339
NCI-H23 | 0.327
NCI-H1915 | 0.244
NCI-H1437 | 0.593
NCI-H322M | 0.736
NCI-H1792 | 0.479
NCI-H2085 | 0.479
HCC-15 | 0.621
PC-3 [JPC-3] | 0.783
EKVX | 0.289
LC-2-ad | 0.754

Same assay, conditions: first compound 0.253 µM

Cell Line | relative viability
HCC-44 | 0.788
LXF-289 | 0.383
BEN | 0.687
HARA | 0.438
HCC-78 | 0.613
NCI-H441 | 0.263
LCLC-97TM1 | 0.204
NCI-H2023 | 0.223
A-427 | 0.544
NCI-H460 | 0.432
NCI-H1755 | 0.702
NCI-H520 | 0.468
NCI-H2405 | 0.678
SW 1573 | 0.409
201T | 0.904
NCI-H1975 | 0.336

Cell Line | relative viability
HCC-827 | 0.317
NCI-H2347 | 0.596
NCI-H1355 | 0.311
NCI-H650 | 0.3
NCI-H1666 | 0.691
EPLC-272H | 0.37
NCI-H23 | 0.274
NCI-H1915 | 0.277
NCI-H1437 | 0.521
NCI-H322M | 0.703
NCI-H1792 | 0.384
NCI-H2085 | 0.532
HCC-15 | 0.662
EKVX | 0.397
LC-2-ad | 0.776

Same assay, conditions: first compound 0.8 µM

Cell Line | relative viability
HCC-44 | 0.834
LXF-289 | 0.391
BEN | 0.772
HARA | 0.539
HCC-78 | 0.614
NCI-H441 | 0.302
LCLC-97TM1 | 0.233
NCI-H2023 | 0.245
A-427 | 0.547
NCI-H460 | 0.464
NCI-H727 | 0.864
NCI-H1755 | 0.701
NCI-H520 | 0.541
NCI-H2405 | 0.686
SW 1573 | 0.441
201T | 0.909

Cell Line | relative viability
NCI-H1975 | 0.381
HCC-827 | 0.352
NCI-H2347 | 0.53
NCI-H1355 | 0.351
NCI-H650 | 0.336
NCI-H1666 | 0.67
EPLC-272H | 0.348
NCI-H23 | 0.32
NCI-H1915 | 0.262
NCI-H1437 | 0.742
NCI-H322M | 0.67
NCI-H1792 | 0.481
NCI-H2085 | 0.504
HCC-15 | 0.58
PC-3 [JPC-3] | 0.865
LC-2-ad | 0.793

Same assay, conditions: first compound 2.53 µM

Cell Line | relative viability
HCC-44 | 0.767
LXF-289 | 0.375
BEN | 0.588
HARA | 0.48
HCC-78 | 0.613
NCI-H441 | 0.226
LCLC-97TM1 | 0.254
NCI-H2023 | 0.203
A-427 | 0.548
NCI-H460 | 0.405
NCI-H1755 | 0.617
NCI-H520 | 0.586
SW 1573 | 0.454
201T | 0.937
NCI-H1975 | 0.356
HCC-827 | 0.287
NCI-H2347 | 0.602
NCI-H1355 | 0.318
NCI-H650 | 0.386
NCI-H1666 | 0.472
NCI-H23 | 0.299
NCI-H1915 | 0.276
NCI-H1437 | 0.384
NCI-H322M | 0.706
NCI-H1792 | 0.548
NCI-H2085 | 0.452
HCC-15 | 0.582
PC-3 [JPC-3] | 0.72
EKVX | 0.356
LC-2-ad | 0.799

Same assay, conditions: first compound 8 µM

Cell Line | relative viability
HCC-44 | 0.826
LXF-289 | 0.363
BEN | 0.781
HARA | 0.664
HCC-78 | 0.661
NCI-H441 | 0.243
LCLC-97TM1 | 0.245
NCI-H2023 | 0.216
A-427 | 0.546
NCI-H460 | 0.402
NCI-H727 | 0.836
NCI-H1755 | 0.604
NCI-H520 | 0.61
NCI-H2405 | 0.671
SW 1573 | 0.485
201T | 0.827
NCI-H1975 | 0.245

Cell Line | relative viability
HCC-827 | 0.328
NCI-H2347 | 0.591
NCI-H1355 | 0.356
NCI-H650 | 0.334
NCI-H1666 | 0.636
EPLC-272H | 0.352
NCI-H23 | 0.32
NCI-H1915 | 0.261
NCI-H1437 | 0.48
NCI-H322M | 0.691
NCI-H1792 | 0.449
NCI-H2085 | 0.457
HCC-15 | 0.625
PC-3 [JPC-3] | 0.756
EKVX | 0.316
LC-2-ad | 0.69

Compound: Cc1ccc(NC(=O)c2ccc(CN3CCN(C)CC3)cc2)cc1Nc1nc(-c2cccnc2)cs1 [Masitinib] + C[C@@H](Oc1cc(-c2cnn(C3CCNCC3)c2)cnc1N)c1c(Cl)ccc(F)c1Cl [Crizotinib] (partner 1 µM)
Assay: as above
Details: first compound 0.01 µM
How it was run: as §1

Cell Line | relative viability
HCC-44 | 0.699
